Test results as given in patent publication US10822315B2, “5-benzylidene-4-oxazolidinones” (NORTH CAROLINA STATE UNIVERSITY, priority 2016, dated 2020).
≈ marks a conversion by molar mass, not a printed value. Like-named read-outs stand apart in the source and are kept apart here.

What was measured:
[1] = tested on: MRSA ATCC BAA-44; experiment: Biofilm inhibition assay (crystal violet); assay type: cell-based, Staphylococcus aureus; details: for inhibition at 5 µM / IC50 / inhibition at 40 µM: Staphylococcus aureus; for IC50: MRSA ATCC BAA-44; for inhibition at 40 µM: Table 2; for fold reduction in biofilm inhibition activity: 7 versus 4, 8 versus 1
Experimental: (§1) General Information. Methicillin-resistant Staphylococcus aureus (MRSA) strains were obtained from the Laboratory of Professor Christian Melander (NCSU) ATCC (33591, BAA 44, BAA 1685, BAA 1770, BAA 43 300) and colonies were grown on solid media as instructed. Mueller-Hinton broth (MHB, 211443-BD), tryptic soy broth (TSB, Remel: R455052) and D-glucose (CAS: 492-62-6) were purchased from Fisher Scientific. Tryptic soy agar (TSA, cat. #22091) and Linezolid (cat. # P70014) were purchased from Sigma-Aldrich. Bacteria for biofilm inhibition and dispersion assays were cultured overnight in TSBG (tryptic soy broth with 0.5% glucose supplement). All assays were run in duplicate and repeated at least two separate times for MIC assays and at least four separate times for biofilm inhibition and dispersion assays. All compounds were dissolved molecular biology grade DMSO as 100 mM stock solutions and further diluted to 10 and 1 mM stock solutions as needed. Optical densities were measured using a Thermo Scientific Genesys 20 spectrophotometer. Data for biofilm inhibition and dispersion assays was collected using a BioTek ELx808 Microplate Reader. All graphs were generated and analyzed using GraphPad Prism 7.
Biofilm Inhibition Assay. Studies were performed using the standard method described in S. A. Rogers and C. Melander, Angew Chem Int Ed, 2008, 47, 5229-5231. Briefly, biofilm inhibition assays were performed by taking an overnight culture of bacterial strain and subculturing it at an OD600 of 0.01 into the necessary growth liquid medium (LB for A. baumannii, LBNS for P. aeruginosa, Stainer-Scholte medium that was supplemented with 10 μL/mL of 100× nutrient complex for B. bronchiseptica and TSB w/0.3% glucose for S. aureus) for the strain. The compound being tested was then added at a predetermined concentration and then aliquoted (100 μL) into the wells of a 96-well PVC microtiter plate (wells not used for samples are filled with 100 μL of de-ionized water). Plates were then wrapped in GLAD Press n' Seal and incubated under stationary conditions at 37° C. After 24 hours, the media was discarded from the wells and the plates were washed thoroughly with tap water. Plates were then stained with 100 μL of 0.1% solution of crystal violet (CV) and then incubated at an ambient temperature for 30 minutes. Sample plates were then washed with tap water again and the remaining stain was solubilized with 200 μL of 95% ethanol. Biofilm inhibition was quantitated by measuring the OD540 for each well by transferring 125 μL of the solubilized CV stain into a polystyrene microtiter dish for analysis. Biofilm inhibition was quantified by measuring the OD540 of each well and calculated as a percentage of the control (no compound); a negative control lane wherein no biofilm was formed served as a background and was subtracted out.
(§2) Percent inhibition was then plotted against concentration in Prism 7. Each of the four experiments were plotted separately and analyzed by a normalized nonlinear regression. The IC50 values reported represent an arithmetic mean of the four IC50 values. Biofilm data represent four separate experiments, with each experiment performed in duplicate (average of 8 data points for each concentration tested, unless otherwise noted)

[2] = tested on: MRSA ATCC BAA-44; experiment: Broth microdilution MIC determination; assay type: cell-based, Staphylococcus aureus; details: for MIC: Staphylococcus aureus
[3] = tested on: MRSA ATCC 33591; experiment: Broth microdilution MIC determination; assay type: cell-based; details: Staphylococcus aureus, Table 1, read-out: Antimicrobial Activity MIC
Experimental: as §1
Broth microdilution protocol for minimum inhibition concentration (MIC) determination. Studies were performed using the standard method prescribed by the Clinical and Laboratory Standards Institute (CLSI) M07-A8, Vol. 29 (2), which is hereby incorporated herein by reference. Briefly, fresh Mueller-Hinton broth (MHB) ˜3 ml, was inoculated (5×10^5 CFU mL^−1) with MRSA (ATCC 33591) methicillin-resistant Staphylococcus aureus. The resulting bacterial suspension was aliquoted (1 mL) into culture tubes and test compound (10 mM DMSO stock solution) was added to reach the final concentration of the interest. Bacteria not treated with the antimicrobial compound served as the control. Rows 2-12 of a 96-well microtiter plate were filled with remaining bacterial subcultures. The samples containing test compound were aliquoted (200 μL) into the first row wells of the microtiter plate (2 wells per compound). Row 1 wells were mixed 6-8 times and 100 μL was transferred down to row 2. Row 2 wells were mixed 6-8 times, followed by a 100 μL transfer from row 2 down to row 3. The rest of the rows of the plate were serially diluted in similar fashion. The plate was covered with sealing tape for 96-well plates (ThermoFisher) and incubated under stationary conditions at 37° C. A duplicate of the plate was prepared.

[4] = tested on: MRSA ATCC BAA-44; experiment: Biofilm dispersion assay (crystal violet, pre-formed biofilm); assay type: cell-based; details: Staphylococcus aureus, Table 2
[5] = tested on: MRSA ATCC BAA-44; experiment: as above; assay type: cell-based, Staphylococcus aureus; details: Staphylococcus aureus; for % dispersion of pre-formed biofilm at 5 µM: MRSA ATCC BAA 44; for IC50: MRSA ATCC BAA-44
Experimental: as §1
Biofilm Dispersion Assay. Studies were performed using the standard method described in J. J. Richards, T. E. Ballard and C. Melander, Org Biomol Chem, 2008, 6, 1356-1363. Briefly, dispersion assays were performed by taking an overnight culture of bacterial strain and subculturing it at an OD600 of 0.01 into the necessary growth liquid medium. The resulting bacterial suspension was aliquoted (100 μL) into the wells of a 96-well PVC microtiter plate. Plates were then wrapped in GLAD Press n' Seal followed by an incubation under stationary conditions at an ambient temperature. After 24 hours, the media was discarded from the wells and the plates were washed thoroughly with tap water. Predetermined concentrations of the test compound were then made in the same medium used to initially grow the biofilms and then aliquoted (100 μL) into the wells of the 96-well PVC microtiter plate with the established biofilms. Plates were then wrapped in GLAD Press n'Seal and incubated under stationary conditions at 37° C. After 24 hours, the media was discarded from the wells and the plates were washed thoroughly with tap water. Plates were then stained with 100 μL of 0.1% solution of crystal violet (CV) and then incubated at room temperature for 30 minutes. Plates were then washed with tap water again and the remaining stain was solubilized with 200 μL of 95% ethanol. Biofilm dispersion was quantitated by measuring the OD540 for each well by transferring 125 μL of the solubilized CV stain into a polystyrene microtiter dish for analysis. Biofilm inhibition was quantified by measuring the OD540 of each well and calculated as a percentage of the control (no compound), a negative control lane wherein no biofilm was formed served as a background and was subtracted out.
as §2, with “dispersion” for “inhibition”

[6] = tested on: red blood cells; experiment: Lysis of red blood cells; assay type: cell-based; details: 100 μM
[7] = MRSA ATCC BAA 44, Table 2, read-out: MIC
[8] = MRSA ATCC BAA-44, Table 1, read-out: Antimicrobial Activity MIC

IC50 [1] [µM] | MIC [2, 7] [µg/mL] | MIC [2, 8] [µg/mL] | MIC [3] [µg/mL] | IC50 [5] [µM] | red blood cells lysed [6] [%] | Compound | inhibition at 5 µM ([1]; 5 μM, MRSA ATCC BAA 44) [%] | inhibition at 40 µM ([1]; MRSA ATCC BAA 44) [%] | biofilm activity (in words) ([1]; even at 40 μM) | antimicrobial activity (in words) ([2]; MRSA ATCC BAA-44) | inhibition at 40 µM [4] [%] | % dispersion of pre-formed biofilm at 5 µM [5] [%] | % Biofilm Inhibition (5 μM) ([1]; 5 μM, MRSA ATCC BAA 44) [%] | fold reduction in biofilm inhibition activity [1] [fold] | fold reduction in antimicrobial activity ([2]; 7 compared with 4) [fold] | dose dependence of biofilm inhibition (in words) ([1]; relative to MIC)
> 20 | > 128 | > 128 | > 128 | > 20 | – | CCCCCCNC(=O)C(=O)Cc1ccc(C(F)(F)F)cc1 [Compound 9, N-hexyl-2-oxo-3-(4-(trifluoromethyl)phenyl)propanamide] | 24 | 41 | only modest biofilm activity | no antimicrobial activity | -6.5 | -24 | – | – | – | –
– | > 128 | – | – | – | – | CCCCC(Cl)(Cl)C1NC(=O)/C(=C/c2ccc(OC)cc2)O1 (stereo not drawn) [Compound 11, (Z)-2-(1,1-di-Chloropentyl)-5-(4-methoxybenzylidene)oxazolidin-4-one] | < 50 | 52 | – | – | 58 | 49 | 39 | – | – | –
1.9 | 16 (≈ 43.9 µM) | 16 (≈ 43.9 µM) | 16 (≈ 43.9 µM) | 6 | – | C#CCC(Cl)(Cl)C1NC(=O)/C(=C/c2ccc(C(F)(F)F)cc2)O1 (stereo not drawn) [Compound 5, (Z)-2-(1,1-dichlorobut-3-yn-1-yl)-5-(4-(trifluoromethyl)benzylidene)oxazolidin-4-one] | 64 | – | – | – | – | 63 | – | – | – | –
3.6 | 32 (≈ 94.1 µM) | 32 (≈ 94.1 µM) | 32 (≈ 94.1 µM) | 5 | – | CC(Cl)(Cl)C1NC(=O)/C(=C/c2ccc(C(F)(F)F)cc2)O1 (stereo not drawn) [Compound 4, (Z)-2-(1,1-dichloroethyl)-5-(4-(trifluoromethyl)benzylidene)oxazolidin-4-one] | 55 | – | – | – | – | 50 | – | – | – | –
7.3 | 128 (≈ 428 µM) | 128 (≈ 428 µM) | 128 (≈ 428 µM) | 9.2 | – | CC(C)(C)C1NC(=O)/C(=C/c2ccc(C(F)(F)F)cc2)O1 (stereo not drawn) [Compound 7, (Z)-2-(tert-butyl)-5-(4-(trifluoromethyl)benzylidene)oxazolidin-4-one] | 31 | 51 | – | – | 31 | 5.7 | – | 3 | 4 | –
7.3 | 64 (≈ 204 µM) | 16 (≈ 51.1 µM) | 16 (≈ 51.1 µM) | – | – | CCCCCC1NC(=O)/C(=C/c2ccc(C(F)(F)F)cc2)O1 (stereo not drawn) [Compound 8, (Z)-2-pentyl-5-(4-(trifluoromethyl)benzylidene)oxazolidin-4-one] | 17 | 53 | – | – | – | – | – | 5 | – | –
3.2 | 64 (≈ 204 µM) | 64 (≈ 204 µM) | 64 (≈ 204 µM) | 5.3 | – | CCCCC(Cl)(Cl)C1NC(=O)/C(=C/c2ccccc2)O1 (stereo not drawn) [Compound 6, (Z)-5-benzylidene-2-(1,1-dichloropentyl)oxazolidin-4-one] | 51 | – | – | – | 26 | 14 | – | – | – | –
1.7 | > 128 | > 128 | > 128 | 6.6 | 7 | CCCCCCCCC(Cl)(Cl)C1NC(=O)/C(=C/c2ccc(C(F)(F)F)cc2)O1 (stereo not drawn) [Compound 3, (Z)-2-(1,1-dichlorononyl)-5-(4-(trifluoromethyl)benzylidene)oxazolidin-4-one] | 68 | 75 | – | completely abolished | 19 | 19 | – | – | – | dose-dependent biofilm inhibition at concentrations well below their MIC
